Source: paper PMC9071858, “Comparative Pharmacokinetics of Seven Major Compounds in Normal and Atherosclerosis Mice after Oral Administration of Simiao Yong'an Decoction” (Evidence-based Complementary and Alternative Medicine : eCAM, 2022)

Assays:
[1] = Pharmacokinetic study in atherosclerosis (AS) model ApoE−/− mice after oral administration of SMYAD; type: in vivo, mouse; details: AS mice, plasma, SMYAD intragastric 35 g/kg/d for seven days, mean ± SD, n = 5; for AUC(0-t) / AUC(0-inf) / Cmax / half-life / Tmax: male, ApoE−/− on a C57BL/6 background, mouse, po, 35 g/kg/day; for AUC(0-t): read-out: AUC0–t; for AUC(0-inf): read-out: AUC0–∞; for Cmax: read-out: C max; for half-life: read-out: t 1/2 (converted); for Tmax: read-out: t max
Description: (§1) Male C57BL/6J mice and ApoE^−/− mice on a C57BL/6 background (7 weeks old, 18–22 g) were purchased from Beijing Vital River Laboratory Animal Technology Co., Ltd. (Beijing, China, Certificate No.: SCXK (Jing) 2016-0006). All the mice were kept in an SPF animal house (Dongzhimen Hospital Affiliated to Beijing University of Chinese Medicine, Certificate No.: SYXK (Jing) 2015-0001) with food and water freely available, 12 h light/dark, and environmental conditions of 22°C–24°C, 50% relative humidity. All protocols of animal experiments were performed in accordance with the National Guidelines for Laboratory Animal Welfare and were approved by the Animal Ethics Committee of Beijing University of Chinese Medicine (NO. BUCM-4-2015071701-3001). High-fat feeding (containing 15% fat and 0.25% cholesterol) was provided by Beijing HFK bioscience CO., LTD. (Beijing, China, Certificate No.: SCXK (Jing) 2014-0018).
The AS model was established by a high-fat diet and perivascular carotid collar placement (PCCP) surgery in the ApoE^−/− mice. After a 7-day adaptive feeding, the mice were given a high-fat diet for 2 weeks; before anesthesia, all ApoE^−/− mice were fasted for 12 hours. During the surgery, the right common carotid artery was exposed, and a silicone cannula (length: 2.5 mm, inner diameter: 0.3 mm) was fixed around the carotid artery (external diameter: about 0.5 mm). Penicillin was injected intraperitoneally for 3 days after surgery to prevent infection. High-fat diet continued for 8 weeks after surgery to establish AS model. Biochemical assays and hematoxylin and eosin (HE) staining were used to evaluate whether AS model was successfully established.
(§2) After successful induction of AS model, SMYAD was administered to NC and AS mice by intragastric gavage at the crude drug dose of 35 g/kg/d for seven days. Blood samples were collected from each mouse in heparinized tubes via the postorbital venous plexus veins at 0, 0.25, 0.5, 1, 2, 4, 6, 8, 10, 12, 18, and 24 h after seven days of drug administration. Then blood samples were immediately centrifuged at 3500 rpm at 4°C for 10 min and the plasma was stored at −80°C until use.
(§3) Each plasma sample (100 μL) was mixed with a threefold volume of methanol and 25 μL IS in a 1.5 mL EP tube. Then the mixture was vortexed for 100 seconds and centrifuged at 12,000 rpm for 10 min at 4°C. The supernatant was transferred to another EP tube and evaporated to dryness under a nitrogen vacuum. The residue was reconstituted with 100 μL of 50% methanol and centrifuged at 15,000 rpm for 15 min. Then the supernatant was transferred to sample vials for the LC-MS analysis.
(§4) A Vanquish UHPLC™ system (Thermo Fisher Scientific Inc., USA) was used for the analysis. Samples were separated on an Atlantis T3 column (4.6 mm × 150 mm, 3 μm; Waters, USA). The column temperature was 40°C. The mobile phase, at 0.4 mL/min, consisted of water containing 0.1% formic acid (v/v, A) and methanol (B). The quantitative analysis gradient program was as follows: 0-1 min, 0 B; 1–6 min, 0–100% B; 6–12 min, 100% B; 12–12.1 min, 100%-0 B; 12.1–15 min, 0 B. The injection volume was 5 μL.
The mass spectrometer Q Exactive HF-X (Thermo Fisher Scientific Inc., USA) system was connected to the UHPLC system via heated electrospray ionization (HESI) and controlled by Xcalibur 4.2 software (Thermo Fisher) that was used for data collection and analysis. The mass spectrometer was operated in a negative ionization mode. The MS parameters were set as follows: probe heater temperature, 350°C; capillary temperature: 320°C; sheath gas (N2) flow rate: 30 arbs; auxiliary gas (N2) flow rate: 10 arbs; spray voltage: 3.2 kV (negative); S-Lens RF level: 55 V; scan mode: full MS (resolution 12000); scan range: m/z 150–1500. The most abundant ions in the spectra were selected for sensitive quantitation ([M-H]^−of chlorogenic acid, angoroside C, liquiritin, isoliquiritigenin, and IS, [M + COOH]^− of harpagide, swertiamarin, and sweroside). […]

[2] = Pharmacokinetic study in normal control (NC) mice after oral administration of SMYAD; type: in vivo, mouse; details: NC mice, plasma, SMYAD intragastric 35 g/kg/d for seven days, mean ± SD, n = 5; for AUC(0-t) / AUC(0-inf) / Cmax / half-life / Tmax: male, C57BL/6J, mouse, po, 35 g/kg/day; for AUC(0-t): read-out: AUC0–t; for AUC(0-inf): read-out: AUC0–∞; for Cmax: read-out: C max; for half-life: read-out: t 1/2 (converted); for Tmax: read-out: t max
Description: as §1, §2, §3, §4
The mass spectrometer Q Exactive HF-X (Thermo Fisher Scientific Inc., USA) system was connected to the UHPLC system via heated electrospray ionization (HESI) and controlled by Xcalibur 4.2 software (Thermo Fisher) that was used for data collection and analysis. The mass spectrometer was operated in a negative ionization mode. The MS parameters were set as follows: probe heater temperature, 350°C; capillary temperature: 320°C; sheath gas (N2) flow rate: 30 arbs; auxiliary gas (N2) flow rate: 10 arbs; spray voltage: 3.2 kV (negative); S-Lens RF level: 55 V; scan mode: full MS (resolution 12000); scan range: m/z 150–1500. The most abundant ions in the spectra were selected for sensitive quantitation ([M-H]^−of chlorogenic acid, angoroside C, liquiritin, isoliquiritigenin, and IS, [M + COOH]^− of harpagide, swertiamarin, and sweroside).
The pharmacokinetic parameters, including maximum plasma concentration (Cmax), time corresponding to Cmax (Tmax), terminal elimination half-life (T1/2), area under plasma concentration-time curve (AUC0–t) and area under the plasma concentration-time curve from 0 to infinity time (AUC0–∞), apparent volume of distribution (Vz/F) and clearance (CLz/F), were calculated using the noncompartment model in DAS 2.0 software package (Shanghai, China). GraphPad prism 6.02 (GraphPad Software, USA) was used in the statistical analysis. All values are expressed as mean ± standard error. For the pharmacokinetic parameter values of the NC and AS groups, Student's t-test was employed for data comparisons. P values <0.05 were considered statistically significant.

[3] = Stability of analytes in QC plasma samples; type: in vitro ADME, mouse; details: n = 5
Description: All solutions were stored at 4°C.
Stability was evaluated as five replicate QC samples at two concentration levels (see Table 5).

[4] = high QC level (600 harpagide, 800 chlorogenic acid, 4800 swertiamarin, 1000 sweroside, 200 others ng/ml)
[5] = low QC level ([…] harpagide, 51.2 chlorogenic acid, 307.2 swertiamarin, 64 sweroside, 12.8 others ng/ml)

## COc1ccc(CCO[C@@H]2O[C@H](CO[C@@H]3OC[C@H](O)[C@H](O)[C@H]3O)[C@@H](OC(=O)/C=C/c3ccc(O)c(OC)c3)[C@H](O[C@@H]3O[C@@H](C)[C@H](O)[C@@H](O)[C@H]3O)[C@H]2O)cc1O [Angoroside C, angoroside C]
[1]
  CLz/F: 313200 ± 39800 µL/min/mg
  Vz/F: 126.00 ± 102.72 L/mg
  AUC(0-t): 1840 ± 298 ng·h/mL
  AUC(0-inf): 1890 ± 226 ng·h/mL
  Cmax: 491 ± 239 ng/mL
  half-life: 7.33 ± 4.68 h
  Tmax: 2.05 ± 1.19 h
[2]
  CLz/F: 495800 ± 401700 µL/min/mg
  Vz/F: 148.22 ± 76.23 L/mg
  AUC(0-t): 1730 ± 883 ng·h/mL
  AUC(0-inf): 1870 ± 1050 ng·h/mL
  Cmax: 289 ± 124 ng/mL
  half-life: 7.4 ± 4.76 h
  Tmax: 0.85 ± 0.62 h
[3]; [4]
  Freeze-thaw stability 3 freeze-thaw cycles Accuracy RE: −1.74%
  Freeze-thaw stability 3 freeze-thaw cycles Calc. conc.: 196.52 ± 13.15 ng/mL
  Long-term stability −20°C for 30 d Accuracy RE: −10.51%
  Long-term stability −20°C for 30 d Calc. conc.: 178.97 ± 6.04 ng/mL
  Postpreparative stability 24 h in the autosampler (4°C) Accuracy RE: −7.27%
  Postpreparative stability 24 h in the autosampler (4°C) Calc. conc.: 185.46 ± 9.39 ng/mL
  Short-term stability 24 h in room temperature (20°C) Accuracy RE: 1.92%
  Short-term stability 24 h in room temperature (20°C) Calc. conc.: 203.84 ± 4.39 ng/mL
[3]; [5]
  Freeze-thaw stability 3 freeze-thaw cycles Accuracy RE: 5.68%
  Freeze-thaw stability 3 freeze-thaw cycles Calc. conc.: 13.53 ± 0.98 ng/mL
  Long-term stability −20°C for 30 d Accuracy RE: 1.73%
  Long-term stability −20°C for 30 d Calc. conc.: 13.02 ± 1.17 ng/mL
  Postpreparative stability 24 h in the autosampler (4°C) Accuracy RE: 1.70%
  Postpreparative stability 24 h in the autosampler (4°C) Calc. conc.: 13.02 ± 1.05 ng/mL
  Short-term stability 24 h in room temperature (20°C) Accuracy RE: 4.09%
  Short-term stability 24 h in room temperature (20°C) Calc. conc.: 13.32 ± 1.09 ng/mL

## C=C[C@H]1[C@H](O[C@@H]2O[C@H](CO)[C@@H](O)[C@H](O)[C@H]2O)OC=C2C(=O)OCC[C@]21O [Swertiamarin, swertiamarin]
[1]
  CLz/F: 95000 ± 32200 µL/min/mg
  Vz/F: 55.16 ± 45.04 L/mg
  AUC(0-t): 5540 ± 2010 ng·h/mL
  AUC(0-inf): 7240 ± 3390 ng·h/mL
  Cmax: 1340 ± 603 ng/mL
  half-life: 5.74 ± 1.9 h
  Tmax: 0.9 ± 0.64 h
[2]
  CLz/F: 97000 ± 44000 µL/min/mg
  Vz/F: 20.82 ± 11.26 L/mg
  AUC(0-t): 5350 ± 1180 ng·h/mL
  AUC(0-inf): 5400 ± 1240 ng·h/mL
  Cmax: 1430 ± 636 ng/mL
  half-life: 4.43 ± 2.06 h
  Tmax: 5 ± 4.97 h
[3]; [4]
  Freeze-thaw stability 3 freeze-thaw cycles Accuracy RE: 7.37%
  Freeze-thaw stability 3 freeze-thaw cycles Calc. conc.: 5153.93 ± 132.15 ng/mL
  Long-term stability −20°C for 30 d Accuracy RE: 0.75%
  Long-term stability −20°C for 30 d Calc. conc.: 4835.93 ± 153.29 ng/mL
  Postpreparative stability 24 h in the autosampler (4°C) Accuracy RE: 3.51%
  Postpreparative stability 24 h in the autosampler (4°C) Calc. conc.: 4968.64 ± 208.19 ng/mL
  Short-term stability 24 h in room temperature (20°C) Accuracy RE: 9.88%
  Short-term stability 24 h in room temperature (20°C) Calc. conc.: 5274.04 ± 147.92 ng/mL
[3]; [5]
  Freeze-thaw stability 3 freeze-thaw cycles Accuracy RE: −5.86%
  Freeze-thaw stability 3 freeze-thaw cycles Calc. conc.: 289.21 ± 13.27 ng/mL
  Long-term stability −20°C for 30 d Accuracy RE: 1.41%
  Long-term stability −20°C for 30 d Calc. conc.: 311.53 ± 14.38 ng/mL
  Postpreparative stability 24 h in the autosampler (4°C) Accuracy RE: −4.67%
  Postpreparative stability 24 h in the autosampler (4°C) Calc. conc.: 292.85 ± 19.45 ng/mL
  Short-term stability 24 h in room temperature (20°C) Accuracy RE: −8.88%
  Short-term stability 24 h in room temperature (20°C) Calc. conc.: 279.92 ± 15.61 ng/mL
